# Source: US9115093B2, “Substituted bicyclic dihydropyrimidinones and their use as inhibitors of neutrophil elastase activity” (Boehringer Ingelheim International GmbH, priority 2013, dated 2015)
# Biological target: T1, neutrophil elastase (Homo sapiens, UniProt P08246)
# T1 sequence (P08246 30-247 limits assumed): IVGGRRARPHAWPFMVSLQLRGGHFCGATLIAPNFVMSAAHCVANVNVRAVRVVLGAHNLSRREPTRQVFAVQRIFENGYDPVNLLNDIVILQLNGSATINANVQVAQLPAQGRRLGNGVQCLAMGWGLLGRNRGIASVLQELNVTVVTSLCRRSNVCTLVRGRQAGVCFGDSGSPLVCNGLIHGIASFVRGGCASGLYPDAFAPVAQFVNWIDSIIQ
# Assay: Human Neutrophil Elastase Assay
# Assay type: biochemical
# Design: purchased Calbiochem 324681
# Details: substrate MeOSuc-Ala-Ala-Pro-Val-AMC, pH 7.5, room temperature
# Procedure: Human Neutrophil Elastase Assay
# Materials: Human neutrophil elastase was purchased from Calbiochem (Cat.No.: 324681) and the elastase substrate MeOSuc-Ala-Ala-Pro-Val-AMC from Bachem (Cat.No.: I-1270). All other materials were of the highest grade commercially available.
# The following buffers were used: Compound buffer: 100 mM Tris, 500 mM NaCl, adjusted to pH 7.5; Assay buffer: 100 mM Tris, 500 mM NaCl, adjusted to pH 7.5, containing 0.01% BSA.
# Assay conditions: Test compounds were prediluted in DMSO and subsequently in compound buffer (5% DMSO final). 5 μL of these compound dilutions were mixed with 10 μl Neutrophil elastase (9 ng/ml in assay buffer) in a black 384 well OptiPlate (Perkin Elmer, Cat No.: 6007270) and incubated for 15 min at room temperature. Subsequently 10 μL substrate solution in assay buffer were added (250 nM final concentration) and the plates were incubated for 60 min at room temperature. After inactivation of the enzyme, fluorescence intensities were measured at 380 nm excitation and 460 nm emission wavelengths.
# Each plate contains wells with a high value control (DMSO+enzyme+substrate) and wells with a low value control (DMSO+inactivated enzyme+substrate). IC50 values were estimated using a sigmoidal concentration response curve with variable slope. Means of low values were taken as 0%, means of high values as 100%.
row,Compound,IC50 [nM]
1,N#Cc1ccc(C2C3=C(CCCC3=O)N(c3cccc(C(F)(F)F)c3)C(=O)N2C(=O)N2CCOCC2)cc1 (stereo not shown) [Example 39.7],63.3
2,CN(Cc1ccccc1)C(=O)CN1C(=O)N(c2cccc(C(F)(F)F)c2)C2=C(C(=O)CCC2)C1c1ccc(C#N)cc1 (stereo not shown) [Example 36.47],13.8
3,"N#Cc1ccc(C2NC(=O)N(c3cccc(C(F)(F)F)c3)C3=C2C(=O)CCC3)c(Cl)c1 (stereo not shown) [Example 56, 3-Chloro-4-(2,5-dioxo-1-(3-(trifluoromethyl)phenyl)-1,2,3,4,5,6,7,8-octahydroquinazolin-4-yl)benzonitrile]",34
4,CN1CCC(NC(=O)CN2C(=O)N(c3cccc(C(F)(F)F)c3)C3=C(C(=O)CCC3)C2c2ccc(C#N)cc2)CC1 (stereo not shown) [Example 36.38],16.9
5,"CS(=O)(=O)c1cc(C#N)ccc1C1NC(=O)N(c2ccnc(C(F)(F)F)c2)C2=C1C(=O)CCC2 (stereo not shown) [Example 57, 4-(2,5-Dioxo-1-(2-(trifluoromethyl)pyridin-4-yl)-1,2,3,4,5,6,7,8-octahydroquinazolin-4-yl)-3-(methylsulfonyl)benzonitrile]",73.2
6,"CS(=O)(=O)CCN1C(=O)N(c2cccc(C(F)(F)F)c2)C2=C(C(=O)CCC2)C1c1ccc(C#N)cc1 (stereo not shown) [Example 30, 4-(3-(2-(Methylsulfonyl)ethyl)-2,5-dioxo-1-(3-(trifluoromethyl)phenyl)-1,2,3,4,5,6,7,8-octahydroquinazolin-4-yl)benzonitrile]",4
7,"COc1cc(C2CC(=O)C3=C(C2)N(c2cccc(C(F)(F)F)c2)C(=O)NC3c2ccc(C#N)cc2)cc(OC)c1OC (stereo not shown) [Example 8, 4-(2,5-Dioxo-1-(3-(trifluoromethyl)phenyl)-7-(3,4,5-trimethoxyphenyl)-1,2,3,4,5,6,7,8-octahydroquinazolin-4-yl)benzonitrile]",26.3
8,CNC(=O)N1C(=O)N(c2ccnc(C(F)(F)F)c2)C2=C(C(=O)CCC2)C1c1ccc(C#N)cc1 (stereo not shown) [Example 76.1],4.4
9,Cc1nc2c(o1)CN(C(=O)CN1C(=O)N(c3cccc(C(F)(F)F)c3)C3=C(C(=O)CCC3)C1c1ccc(C#N)cc1)CC2 (stereo not shown) [Example 36.65],16.2
10,N#Cc1ccc(C2C3=C(CCCC3=O)N(c3cccc(C(F)(F)F)c3)C(=O)N2S(=O)(=O)C=Cc2ccccc2)cc1 (stereo not shown) [Example 44.12],106
11,N#Cc1ccc(C2C3=C(CCCC3=O)N(c3cccc(C(F)(F)F)c3)C(=O)N2C(=O)N2CC(O)C2)cc1 (stereo not shown) [Example 39.4],13.4
12,CC1CCN(C(=O)CN2C(=O)N(c3cccc(C(F)(F)F)c3)C3=C(C(=O)CCC3)C2c2ccc(C#N)cc2)CC1 (stereo not shown) [Example 36.19],10.2
13,"COCCN1C(=O)N(c2cccc(C(F)(F)F)c2)C2=C(C(=O)CCC2)C1c1ccc(C#N)cc1 (stereo not shown) [Example 22, 4-(1-(3-(Trifluoromethyl)phenyl)-3-(2-methoxyethyl)-2,5-dioxo-1,2,3,4,5,6,7,8-octahydroquinazolin-4-yl)benzonitrile]",8.7
14,N#Cc1ccc(C2C3=C(CCCC3=O)N(c3cccc(C(F)(F)F)c3)C(=O)N2CC(=O)N2CCN(C3CC3)CC2)cc1 (stereo not shown) [Example 36.55],21.6
15,CC(C)(O)CNC(=O)N1C(=O)N(c2cccc(C(F)(F)F)c2)C2=C(C(=O)CCC2)[C@H]1c1ccc(C#N)cc1S(C)(=O)=O [Example 75.12],< 1
16,CN1CCC2(CCN(C(=O)CN3C(=O)N(c4cccc(C(F)(F)F)c4)C4=C(C(=O)CCC4)C3c3ccc(C#N)cc3)C2)C1 (stereo not shown) [Example 36.66],5.8
17,COC1CCN(C(=O)CN2C(=O)N(c3cccc(C(F)(F)F)c3)C3=C(C(=O)CCC3)C2c2ccc(C#N)cc2)CC1 (stereo not shown) [Example 36.40],3.1
18,CN(CC1(C)COC1)C(=O)CN1C(=O)N(c2cccc(C(F)(F)F)c2)C2=C(C(=O)CCC2)C1c1ccc(C#N)cc1 (stereo not shown) [Example 36.41],7.4
19,COC(=O)c1cc(S(=O)(=O)N2C(=O)N(c3cccc(C(F)(F)F)c3)C3=C(C(=O)CCC3)C2c2ccc(C#N)cc2)oc1C (stereo not shown) [Example 44.13],27.3
20,N#Cc1ccc(C2C3=C(CCCC3=O)N(c3cccc(C(F)(F)F)c3)C(=O)N2CC(=O)NCC2CC2)cc1 (stereo not shown) [Example 36.3],20.8

# The remaining lines, values ahead:
row,IC50 [nM],Compound
1,2.1,N#Cc1ccc(C2C3=C(CCCC3=O)N(c3cccc(C(F)(F)F)c3)C(=O)N2CC(=O)N2CC[S+]([O-])CC2)cc1 (stereo not shown) [Example 36.45]
2,1.4,CC(C)NC(=O)N1C(=O)N(c2cccc(C(F)(F)F)c2)C2=C(C(=O)CCC2)C1c1ccc(C#N)cc1 (stereo not shown) [Example 70.4]
3,2.4,CC(C)(CO)NC(=O)N1C(=O)N(c2cccc(C(F)(F)F)c2)C2=C(C(=O)CCC2)C1c1ccc(C#N)cc1 (stereo not shown) [Example 70.10]
4,1.7,"N#Cc1ccc(C2C3=C(CCCC3=O)N(c3ccnc(C(F)(F)F)c3)C(=O)N2C(=O)NC2CC2)cc1 (stereo not shown) [Example 76, 4-(4-Cyanophenyl)-N-cyclopropyl-2,5-dioxo-1-(2-(trifluoromethyl)pyridin-4-yl)-1,2,5,6,7,8-hexahydroquinazoline-3(4H)-carboxamide]"
5,< 1,N#Cc1ccc(C2C3=C(CCCC3=O)N(c3cccc(C(F)(F)F)c3)C(=O)N2C(=O)NC2CS(=O)(=O)C2)cc1 (stereo not shown) [Example 70.18]
6,2,"Cc1cc(C#N)ccc1C1C2=C(CCCC2=O)N(c2cccc(C(F)(F)F)c2)C(=O)N1S(C)(=O)=O (stereo not shown) [Example 66, 3-Methyl-4-(3-(methylsulfonyl)-2,5-dioxo-1-(3-(trifluoromethyl)phenyl)-1,2,3,4,5,6,7,8-octahydroquinazolin-4-yl)benzonitrile]"
7,< 1,"N#Cc1ccc(C2C3=C(CCCC3=O)N(c3cccc(C(F)(F)F)c3)C(=O)N2C(=O)NC2CC[S+]([O-])CC2)cc1 (stereo not shown) [Example 71, 4-(4-Cyanophenyl)-2,5-dioxo-N-(1-oxo-hexahydro-1λ^4-thiopyran-4-yl)-1-(3-(trifluoromethyl)phenyl)-1,2,5,6,7,8-hexahydroquinazoline-3(4H)-carboxamide]"
8,< 1,CS(=O)(=O)c1ccc(CNC(=O)N2C(=O)N(c3cccc(C(F)(F)F)c3)C3=C(C(=O)CCC3)C2c2ccc(C#N)cc2)nc1 (stereo not shown) [Example 39.20]
9,< 1,"CNC(=O)N1C(=O)N(c2cccc(C(F)F)c2)C2=C(C(=O)CCC2)C1c1ccc(C#N)cc1S(C)(=O)=O (stereo not shown) [Example 50, 4-(4-Cyano-2-(methylsulfonyl)phenyl)-1-(3-(difluoromethyl)phenyl)-N-methyl-2,5-dioxo-1,2,5,6,7,8-hexahydroquinazoline-3(4H)-carboxamide]"
10,2.9,CN(Cc1cnn(C)c1)C(=O)CN1C(=O)N(c2cccc(C(F)(F)F)c2)C2=C(C(=O)CCC2)C1c1ccc(C#N)cc1 (stereo not shown) [Example 36.54]
11,< 1,N#Cc1ccc(C2C3=C(CCCC3=O)N(c3cccc(C(F)(F)F)c3)C(=O)N2C(=O)NC2CC2)cc1 (stereo not shown) [Example 70.3]
12,2.6,N#Cc1ccc(C2C3=C(CCCC3=O)N(c3cccc(C(F)(F)F)c3)C(=O)N2CC(=O)N2CCn3cncc3C2)cc1 (stereo not shown) [Example 36.49]
13,2.1,N#Cc1ccc(C2C3=C(CCCC3=O)N(c3cccc(C(F)(F)F)c3)C(=O)N2CC(=O)N2CCC(O)C2)cc1 (stereo not shown) [Example 36.8]
14,1,"COCCNC(=O)N1C(=O)N(c2cccc(C(F)(F)F)c2)C2=C(C(=O)CCC2)C1c1ccc(C#N)cc1 (stereo not shown) [Example 39, 4-(4-Cyanophenyl)-N-(2-methoxyethyl)-2,5-dioxo-1-(3-(trifluoromethyl)phenyl)-1,2,5,6,7,8-hexahydroquinazoline-3(4H)-carboxamide]"
